Results on 13 compounds are retold here after patent US8088818B2, “Catechol-based derivatives for treating or preventing diabetics” (National Taiwan University, priority 2006, dated 2012).

The test system of one series is Normal rats. Description: Blood sugar lowering in normal rats after oral administration. The settings on record: 0.5 mg/kg oral; for % decrease in plasma glucose: Table 14; for Pre-treatment Plasma glucose: pre-treatment (baseline). The format is in vivo, rat. The method, then:
(a) Male Wistar rats are provided from the National Laboratory Animal Breeding and Research Center (Taipei, Taiwan), each of whose weight is about 200-250 grams, and the average age thereof is above 8 weeks. They were housed under conditions of constant temperature (25±1[…]) and controlled illumination (light time and dark time are respectively 12 hours). Food and water were available.
(§1) (d) The administration: Dissolve the medicine equivalently in deionized water, and then administrate the mentioned solution into the normal and diabetic rats by an orally perfusion. Keep with the desired concentration of the perfusion amount by taking suitable amount of the medicine solution according to the weight of the different animal.
(§2) The rats to be experimented should undergo a starvation for 8-12 hours overnight. Next day, the rats are anesthetized with 30 mg/kg pentobarbital by injecting into the abdominal cavity. After the rats fall asleep, fix the rats on the board with the rubber band. Open the groin, find the veins, bleed 0.1 ml blood from an empty stomach, and then feed the medicine into the body of the rats by taking orally. After 90 minutes, bleed and perform a centrifugation (13,000 rpm, 5 minutes) to separate the serum and the plasma. Take the 10 μl supernatant of the serum and add 1 ml reagent of the glucose kit thereinto by gently mixing. React for 5 minutes at 37 °C, followed by detecting the value of the blood sugar by means of BST330 based on the different absorption level. […] The value of the blood sugar (mg/dL) is calculated by comparing the level of redness with contrasting the standard curve.
(§3) (The value of blood sugar at postadministration)−(The value of blood sugar at preadministration)/(The value of blood sugar at preadministration)×100%
The results of the experiments are presented in the average value±the standard error (mean±SE), and the variations therebetween are evaluated according to the Student's t-test, while the variations thereamong are evaluated according to one-way ANOVA and Bonferroni's t-test, wherein P<0.05 is deemed to have apparent differences.

Another series deals with coronary artery. Description: Flow rate of the coronary artery in the isolated perfused rat heart (Langendorff). The settings on record: for effect on coronary flow rate (in words): Wistar rats, Tables 15 and 16; for coronary flow: isolated Wistar rat heart. As to the method:
Each of the male Wistar rats weighs about 200-250 grams, and is anesthetized with 25 mg/kg pentobarbital and 16 mg/kg heparin by injecting into the abdominal cavity. After falling asleep, separate the cervical vertebra and immediately take the heart out hanging on the constant pouring pressure circulation instrument (Langendorff, AD Instruments Pty Ltd, ML870B2) and fill a 37[…] pouring solution of 95% of oxygen and 5% of carbon dioxide with the artery (119.7 mM NaCl, 23.8 mM NaHCO3, 5.6 mM glucose, 1.2 mM CaCl2, 1.1 mM MgCl2, 0.3 mM NaH2PO4, and 5.0 mM KCl), which washes the heart and clean out the blood water by pouring in a reverse direction. The rate of the reverse pouring is 10 ml/min, followed by maintaining the pouring pressure of the coronary artery at 80 mmHg. After balancing for thirty minutes, measure the rate of the pouring solution flowing in the heart, and observe the change of the rate the pouring solution flowing in the heart while the testing drug is added.

The conditions of series [1]: literature; cited from earlier work.
In the next series the test system is Type 2 diabetic rats. Description: Blood sugar lowering in insulin-induced type 2 diabetic rats after oral administration. The format is in vivo, rat. As to conditions: type II diabetic rats, 1 mg/kg, p.o., 90 minutes. As to the method: (c) Insulin-induced type 2 diabetic rats: the abdominal cavity of the male Wistar rats of 12 weeks age are injected with 0.5 IU/kg long-term insulin (MonotardR HM) three times a day for fourteen days. Then, the 10 mg/kg tolbutamide, an anti-diabetic drug of sulfonylurea class, is injected into the abdominal cavity. Phlebotomize 0.1 ml blood respectively at the preadministration and the postadministration of sixty minutes, and calculate the reduced value of the blood sugar. If the variation of the ability of lowering blood sugar is less than 10%, which is deemed as the type II (insulin resistance) diabetes rat.
as §1, §2, §3

Structures are written as SMILES.

With `O=C(C=Cc1ccc(O)c(O)c1)NCCc1ccc(Br)cc1` [638 B], in the series on Normal rats, the “% decrease in plasma glucose” value amounted to 21.4 ± 3.0 %, the “Post-treatment Plasma glucose” value amounted to 76.8 ± 4.1 mg/dL and the “Pre-treatment Plasma glucose” value was found to be 98.1 ± 5.2 mg/dL.
In the case of `CC(=O)Oc1ccc(C=CC(=O)NCCc2ccccc2)cc1OC(C)=O` [639 B], the “% decrease in plasma glucose” value with Normal rats is given as 28.1 ± 3.3 %. In addition, the “Post-treatment Plasma glucose” value in the series with Normal rats was 84.0 ± 5.0 mg/dL. Besides, the “Pre-treatment Plasma glucose” value in the series with Normal rats came out at 116.7 ± 2.8 mg/dL. The “effect on coronary flow rate (in words)” value in the series with coronary artery was “capable of increasing the coronary flow rate”. The coronary flow in the series on coronary artery (conc. 0 (baseline)) worked out at 7.4 ± 0.2 mL/min; in the series with coronary artery (conc. 1 (unit printed .[…]M)), 9.0 ± 0.4 mL/min; in the series on coronary artery (conc. 3 (unit printed .[…]M)), 11.6 ± 0.6 mL/min.
For the compound `O=C(C=Cc1ccc(O)c(O)c1)Nc1ccc(O)cc1` [Compound 638H], the coronary flow stood at 9.0 ± 0.3 mL/min in the series on coronary artery (conc. 0 (baseline)); 9.0 ± 0.5 mL/min with coronary artery (conc. 0.1 (unit printed .[…]M)); 8.9 ± 0.5 mL/min with coronary artery (conc. 0.3 (unit printed .[…]M)); 9.1 ± 0.5 mL/min in the series on coronary artery (conc. 1 (unit printed .[…]M)); 10.1 ± 0.7 mL/min in the series on coronary artery (conc. 3 (unit printed .[…]M)); 13.1 ± 1.0 mL/min in the series on coronary artery (conc. 10 (unit printed .[…]M)).
Take `COc1cc(CNC(=O)CCCC/C=C/C(C)C)ccc1O` [capsaicin]: the “lowering blood sugar (earlier studies)” value in series [1] is listed as “effective in lowering blood sugar”.
Take `O=C(/C=C/c1ccc2c(c1)OCO2)NCCc1ccccc1` [615 (37)]: in the series on Normal rats, the “% decrease in plasma glucose” value is 23.9 ± 2.1 %, the “Post-treatment Plasma glucose” value came to 105.2 ± 3.5 mg/dL and the “Pre-treatment Plasma glucose” value is listed as 138.3 ± 4.1 mg/dL.
In the same order, the values of `COc1ccc(CCNC(=O)C=Cc2ccc(O)c(O)c2)cc1OC` [638 A] are 18.1 ± 2.9%, 83.6 ± 1.9 mg/dL and 102.5 ± 2.4 mg/dL.
For `CN(CCOc1ccc(CC2SC(=O)NC2=O)cc1)c1ccccn1` (centres unmarked) [Rosiglitazone, reference compound], in the series with Type 2 diabetic rats, the “% decrease in plasma glucose” value came out at 15.6 ± 6.3%.
As for `CN(CCc1ccccc1)C(=O)C=Cc1ccc(O)c(O)c1` [Compound 642B], the “effect on coronary flow rate (in words)” value with coronary artery was “capable of increasing the coronary flow rate”. For the same compound, the coronary flow was 9.8 ± 2.1 mL/min with coronary artery (conc. 0 (baseline)); 9.8 ± 2.1 mL/min in the series on coronary artery (conc. 0.1 (unit printed .[…]M)); 10.4 ± 1.7 mL/min in the series on coronary artery (conc. 0.3 (unit printed .[…]M)); 12.8 ± 1.9 mL/min in the series with coronary artery (conc. 1 (unit printed .[…]M)); 17.4 ± 1.9 mL/min in the series on coronary artery (conc. 3 (unit printed .[…]M)); 23.2 ± 1.7 mL/min with coronary artery (conc. 10 (unit printed .[…]M)).
Take `O=C(C=Cc1ccc(O)c(O)c1)NCc1cccc(F)c1` [Compound 638I]: the “effect on coronary flow rate (in words)” value in the series on coronary artery is on record as “capable of increasing the coronary flow rate”. The coronary flow in the series with coronary artery (conc. 0 (baseline)) worked out at 7.4 ± 0.7 mL/min; in the series on coronary artery (conc. 0.1 (unit printed .[…]M)), 7.1 ± 0.5 mL/min; in the series with coronary artery (conc. 0.3 (unit printed .[…]M)) it was 7.1 ± 0.5 mL/min; in the series with coronary artery (conc. 1 (unit printed .[…]M)), 7.6 ± 0.8 mL/min; in the series with coronary artery (conc. 3 (unit printed .[…]M)) it was 8.2 ± 0.8 mL/min; in the series on coronary artery (conc. 10 (unit printed .[…]M)), 9.3 ± 0.7 mL/min.
As to `CN(Cc1ccccc1)C(=O)C=Cc1ccc(O)c(O)c1` [Compound 642A], the “effect on coronary flow rate (in words)” value with coronary artery was “capable of increasing the coronary flow rate”. Further, the coronary flow in the series with coronary artery (conc. 0 (baseline)) amounted to 10.0 ± 0.7 mL/min; with coronary artery (conc. 0.1 (unit printed .[…]M)), 12.9 ± 0.4 mL/min; in the series with coronary artery (conc. 0.3 (unit printed .[…]M)) it was 14.2 ± 0.8 mL/min; with coronary artery (conc. 1 (unit printed .[…]M)) it was 16.8 ± 1.6 mL/min; in the series on coronary artery (conc. 3 (unit printed .[…]M)), 19.8 ± 2.1 mL/min.
For the compound `O=C(O)/C=C/c1ccc(O)c(O)c1` [caffeic acid], the “lowering blood sugar (earlier studies)” value in series [1] is on record as “effective in lowering blood sugar”.
Usually melting point stands for the temperature, or range, at which the solid turns liquid. In the case of `CCCCNC(=O)C=Cc1ccc2c(c1)OCO2`, the melting point lay in the range of 82 to 83 °C.
`COc1cc(/C=C/C(=O)NCCc2ccccc2)ccc1O` [Compound 640]: in the series with coronary artery, the “effect on coronary flow rate (in words)” value was “capable of increasing the coronary flow rate”. Moreover, the coronary flow was 9.7 ± 1.3 mL/min in the series with coronary artery (conc. 0 (baseline)); 10.1 ± 1.5 mL/min in the series with coronary artery (conc. 0.1 (unit printed .[…]M)); 10.2 ± 1.4 mL/min in the series on coronary artery (conc. 0.3 (unit printed .[…]M)); 10.3 ± 1.5 mL/min with coronary artery (conc. 1 (unit printed .[…]M)); 11.0 ± 1.5 mL/min with coronary artery (conc. 3 (unit printed .[…]M)); 14.6 ± 2.2 mL/min with coronary artery (conc. 10 (unit printed .[…]M)).
